Data on one molecule can be found in US20180369203A1, “METHODS OF TREATING CANCER BY ADMINISTERING A MEK INHIBITOR IN COMBINATION WITH A PROTEASOME INHIBITOR” (The Jackson Laboratory, priority 2015, published 2018).

The subject of assay [1] is A2058 cells. The assay can be described thus: Experimental melanoma metastasis, i.v. luciferase-expressing A2058 cells in NOD/SCID mice. The assay is classed as in vivo. Particulars: n=10 per group. The method, then: FIGS. 6A-N show combined MEK and proteasome inhibition exerts potent tumor-suppressive effects. (A) After treatments with 20 nM AZD6244, 100 nM Bortezomib, or both for 24 hr, viable cells were quantitated by CellTiter® Blue (mean±SD, n=6, ANOVA). (B and C) 1×10^6 A2058 cells were s.c. injected into NOD/SCID mice. After 7 days, mice were treated with DMSO, 5 mg/Kg AZD6244, 0.5 mg/Kg Bortezomib, or the combination via i.p. injection three times a week. Tumor volumes were measured using a caliper weekly (mean±SEM, ANOVA). Tumor growth curves were fitted to exponential growth models to derive tumor-doubling time (DT). Kaplan-Meier survival curve was plotted for each group (Log-rank test). (D) Proteins were detected by immunoblotting, 3 tumors per group. (E) Tumor lysates were used to quantitate AOs, 5 tumors per group (mean±SD, n=3, ANOVA). (F) Tumor lysates were used to seed Aβ1-42 peptides, 5 tumors per group (mean±SD, n=3, ANOVA). (G-H) Tumor sections were stained with CR, 5 tumors per group. […] Total CR fluorescence in each field was quantitated using ImageJ and normalized against total nuclei (median, n=50, ANOVA). […] Body weights were monitored weekly (mean±SD, n=10, ANOVA). […]
A2058 cells were s.c. injected into the left flanks of 9-week-old female NOD.CB17-Prkdc/J (NOD/SCID) mice (The Jackson Laboratory). […] Tumor volumes were calculated following the formula 4/3πR^3. […]

The test system of assay [2] is polyQ79. The assay can be described thus: polyQ79 aggregate size in HEK293T cells (Coulter counter). It counts as cell-based. The following applies: 20 nM AZD6244, 100 nM Bortezomib, or both. The procedure: FIGS. 5A-Y show MEK and proteasome inhibition provoke protein aggregation and amyloidogenesis. (A-B) WM115 cells treated with 20 nM AZD6244, 100 nM Bortezomib, or both for 24 hr were stained with Lys48-specific ubiquitin antibodies. Arrowheads mark ubiquitin-positive aggregates. Scale bar: 10 μm. Amounts of aggregates per cell were quantitated using ImageJ (median, n≥100, ANOVA). (C-F) Following transfection with polyQ79 plasmids alone or with both polyQ79 and HSF1^S326D plasmids for one day, HEK293T cells were treated with inhibitors as described in (A-B). Cells were either analyzed for aggregate size or stained with 10 μM ThT. (G) Treated tumor cell lines were stained with 10 μM ThT. Geometric means were used to calculate fold changes in ThT fluorescence intensity and the log 2(FC) values were presented as a heat map. (H) HEK293T cells were transfected with LacZ or polyQ79 plasmid. Following treatments, AOs were quantitated by ELISA using A11 antibodies (mean±SD, n=3, ANOVA). (I) Intrinsic AOs were detected in human tumor cell lines (mean±SD, n=3, ANOVA). […] Amyloids were quantitated by ELISA (mean±SD, n=3, Student's t-test). […] AF formation was monitored by ThT binding (mean±SD, n=3, ANOVA). […] Amyloids were quantitated (mean±SD, n=3, Student's t-test). […] Viable cells were quantitated by CellTiter® blue (mean±SD, n=6, Student's t-test). […] Viable cells were quantitated (mean±SD, n=6, ANOVA). […]

For the molecule `CC(C)C[C@H](NC(=O)[C@H](Cc1ccccc1)NC(=O)c1cnccn1)B(O)O` [Bortezomib, bortezomib], the “mice with luminescence detected by in vivo imaging” value in assay [1] is reported as 40%. In assay [2], the polyQ79 aggregate size entry is on record as “enhanced”.
